Assays:
Details in all cases: 2 µM
[1] = (§1) The drug is tested on Z-030 corresponding to mouse gut metagenome with ENA study accession number: PRJEB37062 and ENA sample accession number: ERS12561829 for biotransformation under anaerobic condition. The drug concentrations were measured over 9 timepoints collected between 0 and 24 hours of incubation by liquid-chromatography-coupled mass spectrometry (LC–MS)
[2] = as §1, with “Z-029” for “Z-030”, “rat” for “mouse”, “ERS12561828” for “ERS12561829”
[3] = as §1, with “Z-028” for “Z-030”, “ERS12561827” for “ERS12561829”
[4] = as §1, with “Z-027” for “Z-030”, “to” for “to mouse gut”, “ERS12561826” for “ERS12561829”
[5] = as §1, with “Z-026” for “Z-030”, “to” for “to mouse gut”, “ERS12561825” for “ERS12561829”
[6] = as §1, with “Z-025” for “Z-030”, “rabbit” for “mouse”, “ERS12561824” for “ERS12561829”
[7] = as §1, with “Z-024” for “Z-030”, “pig” for “mouse”, “ERS12561823” for “ERS12561829”
[8] = as §1, with “Z-023” for “Z-030”, “to” for “to mouse gut”, “ERS12561822” for “ERS12561829”
[9] = as §1, with “Z-022” for “Z-030”, “ERS12561821” for “ERS12561829”
[10] = as §1, with “Z-021” for “Z-030”, “to” for “to mouse gut”, “ERS12561820” for “ERS12561829”
[11] = as §1, with “Z-020” for “Z-030”, “rabbit” for “mouse”, “ERS12561819” for “ERS12561829”
[12] = as §1, with “Z-019” for “Z-030”, “rat” for “mouse”, “ERS12561818” for “ERS12561829”
[13] = as §1, with “Z-018” for “Z-030”, “pig” for “mouse”, “ERS12561817” for “ERS12561829”
[14] = as §1, with “Z-017” for “Z-030”, “ERS12561816” for “ERS12561829”
[15] = as §1, with “Z-016” for “Z-030”, “ERS12561815” for “ERS12561829”
[16] = as §1, with “Z-014” for “Z-030”, “rat” for “mouse”, “ERS12561814” for “ERS12561829”
[17] = as §1, with “Z-013” for “Z-030”, “rabbit” for “mouse”, “ERS12561813” for “ERS12561829”
[18] = as §1, with “Z-012” for “Z-030”, “to” for “to mouse gut”, “ERS12561812” for “ERS12561829”
[19] = as §1, with “Z-011” for “Z-030”, “ERS12561811” for “ERS12561829”
[20] = as §1, with “Z-010” for “Z-030”, “to” for “to mouse gut”, “ERS12561810” for “ERS12561829”
[21] = as §1, with “Z-009” for “Z-030”, “pig” for “mouse”, “ERS12561809” for “ERS12561829”
[22] = as §1, with “Z-008” for “Z-030”, “to” for “to mouse gut”, “ERS12561808” for “ERS12561829”
[23] = as §1, with “Z-007” for “Z-030”, “rat” for “mouse”, “ERS12561807” for “ERS12561829”
[24] = as §1, with “Z-006” for “Z-030”, “ERS12561806” for “ERS12561829”
[25] = as §1, with “Z-005” for “Z-030”, “to” for “to mouse gut”, “ERS12561805” for “ERS12561829”
[26] = as §1, with “Z-004” for “Z-030”, “to” for “to mouse gut”, “ERS12561804” for “ERS12561829”
[27] = as §1, with “Z-003” for “Z-030”, “pig” for “mouse”, “ERS12561803” for “ERS12561829”
[28] = as §1, with “Z-002” for “Z-030”, “rabbit” for “mouse”, “ERS12561802” for “ERS12561829”
[29] = as §1, with “Z-001” for “Z-030”, “ERS12561801” for “ERS12561829”
Also: call rule not given here.

Compound | Bacterial Biotransformation [1] | Bacterial Biotransformation [2] | Bacterial Biotransformation [3] | Bacterial Biotransformation [4] | Bacterial Biotransformation [5] | Bacterial Biotransformation [6] | Bacterial Biotransformation [7] | Bacterial Biotransformation [8] | Bacterial Biotransformation [9] | Bacterial Biotransformation [10] | Bacterial Biotransformation [11] | Bacterial Biotransformation [12] | Bacterial Biotransformation [13] | Bacterial Biotransformation [14] | Bacterial Biotransformation [15] | Bacterial Biotransformation [16] | Bacterial Biotransformation [17] | Bacterial Biotransformation [18] | Bacterial Biotransformation [19] | Bacterial Biotransformation [20] | further results
O=C1CCc2ccc(OCCCCN3CCN(c4cccc(Cl)c4Cl)CC3)cc2N1 [ARIPIPRAZOLE] | Compound NOT metabolized | Compound NOT metabolized | Compound metabolized | Compound NOT metabolized | Compound metabolized | Compound metabolized | Compound metabolized | Compound metabolized | Compound metabolized | Compound metabolized | Compound metabolized | Compound NOT metabolized | Compound metabolized | Compound metabolized | Compound metabolized | Compound metabolized | Compound metabolized | Compound NOT metabolized | Compound NOT metabolized | Compound metabolized | Bacterial Biotransformation [21]: Compound metabolized; Bacterial Biotransformation [22]: Compound metabolized; Bacterial Biotransformation [23]: Compound NOT metabolized; Bacterial Biotransformation [24]: Compound metabolized; Bacterial Biotransformation [25]: Compound metabolized; Bacterial Biotransformation [26]: Compound NOT metabolized; Bacterial Biotransformation [27]: Compound metabolized; Bacterial Biotransformation [28]: Compound NOT metabolized; Bacterial Biotransformation [29]: Compound NOT metabolized
CN1C[C@H](C(=O)N[C@]2(C)O[C@@]3(O)[C@@H]4CCCN4C(=O)[C@H](Cc4ccccc4)N3C2=O)C[C@@H]2c3cccc4[nH]cc(c34)C[C@H]21.CS(=O)(=O)O [DIHYDROERGOTAMINE MESYLATE] | Compound NOT metabolized | Compound NOT metabolized | Compound NOT metabolized | Compound NOT metabolized | Compound metabolized | Compound metabolized | Compound metabolized | Compound metabolized | Compound metabolized | Compound NOT metabolized | Compound NOT metabolized | Compound NOT metabolized | Compound NOT metabolized | Compound NOT metabolized | Compound NOT metabolized | Compound NOT metabolized | Compound NOT metabolized | Compound NOT metabolized | Compound NOT metabolized | Compound NOT metabolized | Bacterial Biotransformation [21]: Compound NOT metabolized; Bacterial Biotransformation [22]: Compound NOT metabolized; Bacterial Biotransformation [23]: Compound NOT metabolized; Bacterial Biotransformation [24]: Compound NOT metabolized; Bacterial Biotransformation [25]: Compound NOT metabolized; Bacterial Biotransformation [26]: Compound NOT metabolized; Bacterial Biotransformation [27]: Compound NOT metabolized; Bacterial Biotransformation [28]: Compound metabolized; Bacterial Biotransformation [29]: Compound NOT metabolized

From ChEMBL document CHEMBL5724914, “Linking interpersonal differences in gut microbiota composition and drug biotransformation activity” (2024)
